Experimental data from PubChem BioAssay (NCI).
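Grown in 96-well plates, cells were treated for 48 hours with each compound at five concentrations. Insufficient inhibition: endpoint recorded as highest concentration tested. TGI denotes the concentration required for complete inhibition of growth.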

Columns and labels:
Test in all cases: NCI tumour cell line growth inhibition, 48 h
SF-295 CNS = tested on: SF-295 CNS
SK-OV-3 ovarian = tested on: SK-OV-3 ovarian
MCF7 breast = tested on: MCF7 breast
OVCAR-5 ovarian = tested on: OVCAR-5 ovarian
SK-MEL-28 melanoma = tested on: SK-MEL-28 melanoma
HCC-2998 colon = tested on: HCC-2998 colon
UO-31 renal = tested on: UO-31 renal
SNB-75 CNS = tested on: SNB-75 CNS
UACC-257 melanoma = tested on: UACC-257 melanoma
786-0 renal = tested on: 786-0 renal
HOP-62 NSCLC = tested on: HOP-62 NSCLC
MDA-MB-231 breast = tested on: MDA-MB-231 breast
NCI-H226 lung = tested on: NCI-H226 lung
OVCAR-4 ovarian = tested on: OVCAR-4 ovarian
OVCAR-3 ovarian = tested on: OVCAR-3 ovarian
HCT-116 colon = tested on: HCT-116 colon
CCRF-CEM leukemia = tested on: CCRF-CEM leukemia
OVCAR-8 ovarian = tested on: OVCAR-8 ovarian
NCI-H23 lung = tested on: NCI-H23 lung
A498 renal = tested on: A498 renal
MALME-3M melanoma = tested on: MALME-3M melanoma
A549 NSCLC = tested on: A549 NSCLC
BT-549 breast = tested on: BT-549 breast
MDA-MB-435 = tested on: MDA-MB-435
SW-620 colon = tested on: SW-620 colon
CAKI-1 renal = tested on: CAKI-1 renal
SR leukemia = tested on: SR leukemia
KM12 colon = tested on: KM12 colon
SK-MEL-2 melanoma = tested on: SK-MEL-2 melanoma
HS 578T breast = tested on: HS 578T breast
K-562 leukemia = tested on: K-562 leukemia
ACHN renal = tested on: ACHN renal
T-47D breast = tested on: T-47D breast
HOP-92 NSCLC = tested on: HOP-92 NSCLC
LOX IMVI melanoma = tested on: LOX IMVI melanoma
SF-268 CNS = tested on: SF-268 CNS
UACC-62 melanoma = tested on: UACC-62 melanoma
SNB-19 CNS = tested on: SNB-19 CNS
EKVX NSCLC = tested on: EKVX NSCLC
HL-60(TB) leukemia = tested on: HL-60(TB) leukemia
NCI-H460 lung = tested on: NCI-H460 lung
DU-145 prostate = tested on: DU-145 prostate
PC-3 prostate = tested on: PC-3 prostate
MOLT-4 leukemia = tested on: MOLT-4 leukemia
MDA-N = tested on: MDA-N
HT29 colon = tested on: HT29 colon
COLO 205 colon = tested on: COLO 205 colon
RXF 393 renal = tested on: RXF 393 renal
RPMI-8226 leukemia = tested on: RPMI-8226 leukemia
NCI/ADR-RES ovarian = tested on: NCI/ADR-RES ovarian
SN12C renal = tested on: SN12C renal
SK-MEL-5 melanoma = tested on: SK-MEL-5 melanoma
NCI-H522 lung = tested on: NCI-H522 lung
SF-539 CNS = tested on: SF-539 CNS
M14 melanoma = tested on: M14 melanoma
TK-10 renal = tested on: TK-10 renal
HCT-15 colon = tested on: HCT-15 colon
IGROV1 ovarian = tested on: IGROV1 ovarian
U251 CNS = tested on: U251 CNS

Measured: TGI

CN1Cc2c(ccc3c2OCO3)[C@@H]2[C@H](O)Cc3cc4c(cc3[C@@H]21)OCO4
6.74 µM: HCT-15 colon
> 24 µM: UACC-62 melanoma
4.49 µM: HCC-2998 colon
> 47.3 µM: LOX IMVI melanoma
5.12 µM: HT29 colon
> 75 µM: 786-0 renal
> 51.5 µM: OVCAR-8 ovarian
1.46 µM: MDA-N
24.6 µM: MDA-MB-231 breast
12.8 µM: NCI-H23 lung
6.07 µM: A498 renal
> 37.4 µM: RPMI-8226 leukemia
> 26.2 µM: RXF 393 renal
40 µM: SK-MEL-5 melanoma
> 57.1 µM: MOLT-4 leukemia
12.4 µM: KM12 colon
2.53 µM: MDA-MB-435
> 29.2 µM: CCRF-CEM leukemia
> 30.6 µM: DU-145 prostate
28.1 µM: HOP-62 NSCLC
> 26.5 µM: SF-268 CNS | SNB-19 CNS
> 100 µM: OVCAR-5 ovarian | SK-MEL-28 melanoma | UO-31 renal | UACC-257 melanoma | OVCAR-4 ovarian | OVCAR-3 ovarian | MALME-3M melanoma | A549 NSCLC | BT-549 breast | SW-620 colon | CAKI-1 renal | SR leukemia | HS 578T breast | K-562 leukemia | ACHN renal | T-47D breast | HOP-92 NSCLC | EKVX NSCLC | NCI-H460 lung | PC-3 prostate | NCI/ADR-RES ovarian | TK-10 renal | IGROV1 ovarian
> 39.7 µM: SN12C renal
> 25.1 µM: U251 CNS
4.55 µM: COLO 205 colon
> 48.7 µM: MCF7 breast
> 27.1 µM: SK-MEL-2 melanoma
7.64 µM: SNB-75 CNS
4.36 µM: HL-60(TB) leukemia
21.6 µM: SF-295 CNS
> 44.7 µM: HCT-116 colon
14.6 µM: NCI-H522 lung
4.6 µM: SF-539 CNS
9.94 µM: NCI-H226 lung
> 29.9 µM: SK-OV-3 ovarian
> 28.4 µM: M14 melanoma

O=C1Cc2c([nH]c3c(Br)cccc23)-c2ccccc2N1
56.5 µM: K-562 leukemia
43.6 µM: MOLT-4 leukemia
> 100 µM: SF-295 CNS | SK-OV-3 ovarian | MCF7 breast | OVCAR-5 ovarian | HCC-2998 colon | UO-31 renal | SNB-75 CNS | UACC-257 melanoma | 786-0 renal | HOP-62 NSCLC | MDA-MB-231 breast | NCI-H226 lung | OVCAR-3 ovarian | OVCAR-8 ovarian | NCI-H23 lung | A498 renal | MALME-3M melanoma | A549 NSCLC | BT-549 breast | MDA-MB-435 | SW-620 colon | KM12 colon | SK-MEL-2 melanoma | HS 578T breast | ACHN renal | T-47D breast | LOX IMVI melanoma | SF-268 CNS | UACC-62 melanoma | SNB-19 CNS | EKVX NSCLC | NCI-H460 lung | DU-145 prostate | PC-3 prostate | MDA-N | HT29 colon | COLO 205 colon | RPMI-8226 leukemia | NCI/ADR-RES ovarian | SN12C renal | SK-MEL-5 melanoma | SF-539 CNS | M14 melanoma | HCT-15 colon | IGROV1 ovarian | U251 CNS
35.6 µM: CCRF-CEM leukemia
55.3 µM: SR leukemia
73.8 µM: HL-60(TB) leukemia

COc1ccc(OC)c2c(Nc3ccc(S(=O)(=O)O)c4cc(S(=O)(=O)O)cc(S(=O)(=O)O)c34)cc(C)nc12
> 100 µM: SF-295 CNS | SK-OV-3 ovarian | MCF7 breast | OVCAR-5 ovarian | SK-MEL-28 melanoma | HCC-2998 colon | UO-31 renal | SNB-75 CNS | UACC-257 melanoma | 786-0 renal | HOP-62 NSCLC | MDA-MB-231 breast | NCI-H226 lung | OVCAR-4 ovarian | OVCAR-3 ovarian | HCT-116 colon | CCRF-CEM leukemia | OVCAR-8 ovarian | NCI-H23 lung | A498 renal | MALME-3M melanoma | A549 NSCLC | BT-549 breast | MDA-MB-435 | SW-620 colon | CAKI-1 renal | KM12 colon | SK-MEL-2 melanoma | HS 578T breast | K-562 leukemia | ACHN renal | T-47D breast | LOX IMVI melanoma | SF-268 CNS | UACC-62 melanoma | EKVX NSCLC | HL-60(TB) leukemia | NCI-H460 lung | DU-145 prostate | PC-3 prostate | MOLT-4 leukemia | MDA-N | HT29 colon | COLO 205 colon | RXF 393 renal | RPMI-8226 leukemia | NCI/ADR-RES ovarian | SN12C renal | SK-MEL-5 melanoma | NCI-H522 lung | SF-539 CNS | M14 melanoma | TK-10 renal | HCT-15 colon | IGROV1 ovarian | U251 CNS

CC(C)S1=C2C(=O)CC(C)(C)CC2=Nc2ccccc21 (stereo not drawn)
> 100 µM: SF-295 CNS | SK-OV-3 ovarian | MCF7 breast | OVCAR-5 ovarian | SK-MEL-28 melanoma | HCC-2998 colon | UO-31 renal | SNB-75 CNS | UACC-257 melanoma | 786-0 renal | HOP-62 NSCLC | MDA-MB-231 breast | NCI-H226 lung | OVCAR-4 ovarian | OVCAR-3 ovarian | HCT-116 colon | CCRF-CEM leukemia | OVCAR-8 ovarian | NCI-H23 lung | A498 renal | MALME-3M melanoma | A549 NSCLC | BT-549 breast | MDA-MB-435 | SW-620 colon | CAKI-1 renal | SR leukemia | KM12 colon | SK-MEL-2 melanoma | HS 578T breast | K-562 leukemia | ACHN renal | T-47D breast | HOP-92 NSCLC | LOX IMVI melanoma | SF-268 CNS | UACC-62 melanoma | SNB-19 CNS | EKVX NSCLC | NCI-H460 lung | DU-145 prostate | PC-3 prostate | MOLT-4 leukemia | MDA-N | HT29 colon | COLO 205 colon | RXF 393 renal | RPMI-8226 leukemia | NCI/ADR-RES ovarian | SN12C renal | SK-MEL-5 melanoma | NCI-H522 lung | M14 melanoma | TK-10 renal | HCT-15 colon | IGROV1 ovarian | U251 CNS
